Source: patent US8748170B2, “Polypeptides derived from cyclin B1 and uses thereof” (priority 2008, dated 2014)

system: CD4+T cells; experiment: CFSE dilution proliferation of CD4+ T cells in PBMC of heavy smokers; format: cell-based, human; details: PBMC from 5 heavy smokers negative for lung cancer by CT; peptide approximately 2 μg/ml; 6 days; one or more of the peptides
From the text: The amino acid sequence of the whole CB1 protein was synthesized as a series of peptides (generally 12-15 amino acids in length) that overlap by 11 amino acids (each peptide is offset by 4 amino acids). This approach is used when HLA of the subjects being tested is unknown and when there is a potential for multiple reactive peptides restricted by a variety of HLA molecules. It is also useful when the blood collection volumes are too small for dendritic cell generation, and other antigen presenting cells in the peripheral blood are counted on to present peptides without the need for further antigen processing.
Peripheral blood was collected into vaccutainers containing heparin sulfate and processed to obtain peripheral blood mononuclear cells (PBMC) by density centrifugation. PBMC were washed in PBS and labeled with 5 μM CFSE (Invitrogen) in warmed 0.1% FBS in PBS for 10 minutes at 37° C. The CFSE was quenched with 3 volumes of ice cold complete RPMI and incubated for 5 minutes before washes with complete RPMI. PBMC were then resuspended in media containing anti-CD28 and anti-CD49d antibodies for additional costimualtion. Wells coated with anti-CD3 were used as positive controls. Peptides were added at approximately 2 μg/ml. No peptide was added to negative control wells. After 6 days, cells were stained for cell surface markers and tested for proliferation by CFSE dilution using flow cytometry. Peptides that induced proliferation above that seen in the wells receiving no peptides were considered to be stimulatory.

| Sequence | CD4+ T cell proliferation in response to peptide, above background (no peptide) |
| --- | --- |
| KFRLLQETMYMTVSI [Pep61, cyclin B1 amino acids 215-229] | show proliferation |
| LQETMYMTVSIIDRF [Pep62, cyclin B1 amino acids 219-233] | show proliferation |
| MYMTVSIIDRFM [Pep63, cyclin B1 amino acids 223-234] | show proliferation |
